Values quoted from earlier work, collected in patent publication US7638270B2, “Nucleic acids and corresponding proteins entitled 254P1D6B useful in treatment and detection of cancer” (Agensys, Inc., priority 2003, dated 2009).

Tested on: HLA-DR alleles

For “xKXVAAWTLKAAx: pan-DR-binding epitope peptide (SEQ ID NO: 16); X is cyclohexylalanine, phenylalanine or tyrosine”, the “binding to HLA-DR alleles” value is listed as “bind to most HLA-DR alleles” and the “stimulation of the response of T helper lymphocytes” value (regardless of HLA type) is listed as “stimulate the response of T helper lymphocytes from most individuals”.
